Target: Ba/F3 (EGFR^L858R/T790M/C797S) cells (Homo sapiens, UniProt P00533, T790M/C797S/L858R, cells depend on it)
Assay: Antiproliferative activity on Ba/F3 (EGFR L858R/T790M/C797S) cells (CTG)
Format: cell-based
Settings: 72h incubation, CTG luminescence, read-out: IC50 (nM), antiproliferative activity
Procedure: 30 nL of the compound dilution was added to a 384-well plate by Echo (Labcyte, Echo550).
The percent inhibition rate (% inhibition) was calculated by the following formula
[formula] • LUMcmpd: Luminescence value of assay compound. • LUMpositive: Average LUM value of positive drug with a concentration of 10 μM. • LUMvehicle: Average LUM value of negative control group without drug treatment.
The nonlinear regression curve (dose response-variable slope) between the value of inhibition rate (%) and the logarithm of compound concentration was fitted with graphpad prism 8.0, the effect dose curve of compound was drawn, and the IC50 value was calculated.
Y=Bottom+(Top−Bottom)/(1+10^((Log IC50−X)*HillSlope)) • X-axis: logarithm of compound concentration; Y axis: inhibition rate (% inhibition).

Chain of Ba/F3 (EGFR^L858R/T790M/C797S) cells (P00533 whole entry T790M/C797S/L858R): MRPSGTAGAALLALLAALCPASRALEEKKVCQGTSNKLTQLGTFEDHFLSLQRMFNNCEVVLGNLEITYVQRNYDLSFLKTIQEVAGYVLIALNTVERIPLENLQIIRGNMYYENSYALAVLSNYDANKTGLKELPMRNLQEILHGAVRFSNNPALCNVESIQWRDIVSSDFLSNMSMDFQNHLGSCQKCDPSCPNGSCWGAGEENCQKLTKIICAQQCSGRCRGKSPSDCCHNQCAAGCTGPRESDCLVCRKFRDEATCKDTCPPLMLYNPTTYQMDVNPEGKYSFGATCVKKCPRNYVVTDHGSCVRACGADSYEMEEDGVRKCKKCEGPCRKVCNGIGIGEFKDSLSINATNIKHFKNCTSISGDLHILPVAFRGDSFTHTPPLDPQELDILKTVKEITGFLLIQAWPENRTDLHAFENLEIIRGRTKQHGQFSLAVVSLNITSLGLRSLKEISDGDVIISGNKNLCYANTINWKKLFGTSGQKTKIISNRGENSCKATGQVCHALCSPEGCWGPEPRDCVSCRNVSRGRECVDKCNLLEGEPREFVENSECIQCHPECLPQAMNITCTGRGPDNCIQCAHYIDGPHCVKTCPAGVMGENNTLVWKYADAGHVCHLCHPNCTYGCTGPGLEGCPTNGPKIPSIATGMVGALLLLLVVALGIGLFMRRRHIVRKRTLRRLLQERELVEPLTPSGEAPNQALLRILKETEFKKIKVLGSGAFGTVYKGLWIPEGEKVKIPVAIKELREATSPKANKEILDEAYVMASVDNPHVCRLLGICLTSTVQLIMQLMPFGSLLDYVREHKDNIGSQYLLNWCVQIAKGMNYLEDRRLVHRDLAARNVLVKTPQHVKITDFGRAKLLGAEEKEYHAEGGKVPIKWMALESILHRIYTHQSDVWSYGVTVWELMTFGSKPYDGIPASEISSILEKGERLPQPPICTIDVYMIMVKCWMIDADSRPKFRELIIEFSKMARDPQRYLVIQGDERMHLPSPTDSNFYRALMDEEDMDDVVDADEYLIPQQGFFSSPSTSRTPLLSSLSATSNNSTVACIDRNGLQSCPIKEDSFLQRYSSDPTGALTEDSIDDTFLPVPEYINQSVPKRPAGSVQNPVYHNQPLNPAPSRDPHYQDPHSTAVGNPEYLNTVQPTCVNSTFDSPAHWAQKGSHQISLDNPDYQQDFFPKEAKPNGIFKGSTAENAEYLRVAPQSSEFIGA

| Structure (SMILES) | GI50 |
| --- | --- |
| C=CC(=O)Nc1cc(Nc2ncc(Br)c(Nc3ccccc3P(C)(C)=O)n2)c(OC)cc1N1CCC(N2CCN(C)CC2)CC1 [Comparative compound L495, reference compound] | 3740 nM |
| CC#CC(=O)Nc1cc(Nc2ncc(Cl)c(Nc3ccccc3P(C)(C)=O)n2)c(OC)cc1N1CCC(N2CCN(C)CC2)CC1 [Comparative compound L521, reference compound] | 3050 nM |
| C=CC(=O)Nc1cc(Nc2ncc(Br)c(Nc3ccccc3P(C)(C)=O)n2)c(OC)cc1N1CCC(N2CCN(CCCCC#Cc3cccc4c3CN(C3CCC(=O)NC3=O)C4=O)CC2)CC1 (centres unmarked) [Compound D479, N-(5-((5-bromo-4-((2-(dimethylphosphoryl)phenyl)amino)pyrimidin-2-yl)amino)-2-(4-(4-(6-(2-(2,6-dioxopiperidin-3-yl)-1-oxoisoindolin-4-yl)hex-5-yn-1-yl)piperazin-1-yl)piperidin-1-yl)-4-methoxyphenyl)acrylamide] | 86.8 nM |
| C=CC(=O)Nc1cc(Nc2ncc(Cl)c(Nc3ccccc3P(C)(C)=O)n2)c(OC)cc1N1CCC(N2CCN(CCCC#Cc3cccc4c3CN(C3CCC(=O)NC3=O)C4=O)CC2)CC1 (centres unmarked) [Compound D481, N-(5-((5-chloro-4-((2-(dimethylphosphoryl)phenyl)amino)pyrimidin-2-yl)amino)-2-(4-(4-(5-(2-(2,6-dioxopiperidin-3-yl)-1-oxoisoindolin-4-yl)pent-4-yn-1-yl)piperazin-1-yl)piperidin-1-yl)-4-methoxyphenyl)acrylamide] | 68.7 nM |
| C=CC(=O)Nc1cc(Nc2ncc(Br)c(Nc3ccccc3P(C)(C)=O)n2)c(OC)cc1N1CCC(N2CCN(CCCCCC#Cc3cccc4c3CN(C3CCC(=O)NC3=O)C4=O)CC2)CC1 (centres unmarked) [Compound D503, N-(5-((5-bromo-4-((2-(dimethylphosphoryl)phenyl)amino)pyrimidin-2-yl)amino)-2-(4-(4-(7-(2-(2,6-dioxopiperidin-3-yl)-1-oxoisoindolin-4-yl)hept-6-yn-1-yl)piperazin-1-yl)piperidin-1-yl)-4-methoxyphenyl)acrylamide] | 51.2 nM |
| C=CC(=O)Nc1cc(Nc2ncc(Br)c(Nc3ccccc3P(C)(C)=O)n2)ccc1N1CCC(N2CCN(CCCC#Cc3cccc4c3CN(C3CCC(=O)NC3=O)C4=O)CC2)CC1 (centres unmarked) [Compound D549, N-(5-((5-bromo-4-((2-(dimethylphosphoryl)phenyl)amino)pyrimidin-2-yl)amino)-2-(4-(4-(5-(2-(2,6-dioxopiperidin-3-yl)-1-oxoisoindolin-4-yl)pent-4-yn-1-yl)piperazin-1-yl)piperidin-1-yl)phenyl)acrylamide] | 7.41 nM |
| C=CC(=O)Nc1cc(Nc2ncc(Br)c(Nc3ccccc3P(C)(C)=O)n2)ccc1N1CCC(N2CCN(CCCCC#Cc3cccc4c3CN(C3CCC(=O)NC3=O)C4=O)CC2)CC1 (centres unmarked) [Compound D550, N-(5-((5-bromo-4-((2-(dimethylphosphoryl)phenyl)amino)pyrimidin-2-yl)amino)-2-(4-(4-(6-(2-(2,6-dioxopiperidin-3-yl)-1-oxoisoindolin-4-yl)hex-5-yn-1-yl)piperazin-1-yl)piperidin-1-yl)phenyl)acrylamide] | 14.4 nM |
| C=CC(=O)Nc1cc(Nc2ncc(Br)c(Nc3ccccc3P(C)(C)=O)n2)ccc1N1CCC(N2CCN(CCCCCC#Cc3cccc4c3CN(C3CCC(=O)NC3=O)C4=O)CC2)CC1 (centres unmarked) [Compound D551, N-(5-((5-bromo-4-((2-(dimethylphosphoryl)phenyl)amino)pyrimidin-2-yl)amino)-2-(4-(4-(7-(2-(2,6-dioxopiperidin-3-yl)-1-oxoisoindolin-4-yl)hept-6-yn-1-yl)piperazin-1-yl)piperidin-1-yl)phenyl)acrylamide] | 14.5 nM |

Reference: patent US20250257086A1, “EGFR DEGRADATION AGENT” (Beijing Tide Pharmaceutical Co., Ltd., priority 2022, published 2025)
